In ChEMBL document CHEMBL4270520, “From hit to lead: Structure-based discovery of naphthalene-1-sulfonamide derivatives as potent and selective inhibitors of fatty acid binding protein 4” (Eur J Med Chem, 2018):
pIC50, pKd, pKi: −log10 of the molar value. Values belong to the compound of their own block, whether it stands above or below them.

Experiments:
[1] = target: T1, Fatty acid-binding protein, adipocyte (Homo sapiens, UniProt P15090)
Description: Displacement of 1,8-ANS from FABP4 (unknown origin) after 3 mins by fluorescence assay

[2] = target: Fatty acid-binding protein, heart (Homo sapiens, UniProt P05413); test: Inhibition of FABP3 (unknown origin)
3T3-L1 = test: Cytotoxicity against mouse 3T3L1 pre-adipocytes assessed as effect on cell viability up to 80 uM after 24 hrs by MTT assay; format: cell-based; conditions: 3t3-l1, 24 h
[3] = Half life in human liver microsomes at 0.1 uM by HPLC-MS/MS analysis; format: ADME, microsome
[4] = Half life in rat liver microsomes at 0.1 uM by HPLC-MS/MS analysis; format: ADME, microsome
[5] = Half life in mouse liver microsomes at 0.1 uM by HPLC-MS/MS analysis; format: ADME, microsome
[6] = Intrinsic clearance in human liver microsomes assessed per gram of protein at 0.1 uM by HPLC-MS/MS analysis; format: ADME, microsome
[7] = Intrinsic clearance in rat liver microsomes assessed per gram of protein at 0.1 uM by HPLC-MS/MS analysis; format: ADME, microsome
[8] = Intrinsic clearance in mouse liver microsomes assessed per gram of protein at 0.1 uM by HPLC-MS/MS analysis; format: ADME, microsome
[9] = Stability in human liver microsomes assessed as parent compound remaining at 0.1 uM after 60 mins by HPLC-MS/MS analysis; format: ADME, microsome; conditions: read-out: Stability
[10] = Stability in rat liver microsomes assessed as parent compound remaining at 0.1 uM after 60 mins by HPLC-MS/MS analysis; format: ADME, microsome; conditions: read-out: Stability
[11] = Stability in mouse liver microsomes assessed as parent compound remaining at 0.1 uM after 60 mins by HPLC-MS/MS analysis; format: ADME, microsome; conditions: read-out: Stability
Mus musculus [12] = test: Toxicity in C57BL/Ksj db/db mouse assessed as body weight loss at 100 mg/kg, po administered once daily via lavage for 5 weeks measured daily during compound dosing; format: organism-based; conditions: in vivo, 840 h
Mus musculus [13] = test: Hepatotoxicity in C57BL/Ksj db/db mouse at 100 mg/kg, po administered once daily via lavage for 5 weeks measured daily during compound dosing; format: toxicity, organism-based; conditions: in vivo, 840 h
Mus musculus [14] = test: Renal toxicity in C57BL/Ksj db/db mouse at 100 mg/kg, po administered once daily via lavage for 5 weeks measured daily during compound dosing; format: organism-based; conditions: in vivo, 840 h
Mus musculus [15] = test: Toxicity in C57BL/Ksj db/db mouse assessed as effect on pancreas at 100 mg/kg, po administered once daily via lavage for 5 weeks measured daily during compound dosing; format: organism-based; conditions: in vivo, 840 h
Mus musculus [16] = test: Toxicity in C57BL/Ksj db/db mouse assessed as effect on abdominal adipose tissue lipid content at 100 mg/kg, po administered once daily via lavage for 5 weeks measured daily during compound dosing; format: organism-based; conditions: in vivo, 840 h
Mus musculus [17] = test: Effect on total cholesterol levels in C57BL/Ksj db/db mouse at 100 mg/kg, po administered once daily via lavage for 2 to 4 weeks; format: ADME, organism-based; conditions: in vivo
Mus musculus [18] = test: Antidiabetic activity in C57BL/Ksj db/db mouse assessed as reduction in fasting blood glucose level at 100 mg/kg, po administered once daily via lavage for 14 to 35 days relative to control; format: functional; set-up: scale not given: the % may be the effect or the level left
in vitro = conditions: mouse, plasma
Description: Protein binding in mouse plasma at 1 uM after 16 hrs by LC-MS/MS analysis

[19] = target: T1, Fatty acid-binding protein, adipocyte; test: Binding affinity to FABP4 (unknown origin) by isothermal calorimetric titration method

Sequence of Fatty acid-binding protein, heart (P05413 whole entry): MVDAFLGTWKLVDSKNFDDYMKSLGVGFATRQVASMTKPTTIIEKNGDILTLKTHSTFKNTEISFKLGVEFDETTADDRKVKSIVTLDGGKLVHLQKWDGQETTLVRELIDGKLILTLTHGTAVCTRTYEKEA
T1 sequence (P15090 whole entry): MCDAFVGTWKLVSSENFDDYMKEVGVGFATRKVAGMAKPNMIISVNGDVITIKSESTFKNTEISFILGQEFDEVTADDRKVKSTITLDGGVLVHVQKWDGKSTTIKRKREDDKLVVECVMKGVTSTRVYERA

pKi [1]: < 5.21
SMILES: COc1ccc(S(=O)(=O)Nc2cc(C(=O)O)ccn2)c2ccccc12

pKi [1]: < 5.21
SMILES: COc1ccc(C(=O)O)cc1NS(=O)(=O)c1ccc(OC)c2ccccc12

pKi [1]: 5.67
SMILES: O=C(O)CCCCNS(=O)(=O)c1ccc(F)c2ccccc12

pKi [1]: 6.03
SMILES: COc1ccc(S(=O)(=O)Nc2cc(C(=O)O)ccc2Cl)c2ccccc12

pKi [1]: 6.24
SMILES: COc1ccc(S(=O)(=O)Nc2cccc(CCC(=O)O)c2)c2ccccc12

pKi [1]: 5.94
SMILES: COc1ccc(S(=O)(=O)Nc2cc(F)cc(C(=O)O)c2)c2ccccc12

pIC50 [2]: < 4.00 | half-life at 0.1 µM [3]: 4.99 h | half-life at 0.1 µM [4]: 12.1 h | half-life at 0.1 µM [5]: 14.3 h | CLint [6]: 7.02 mL/min/g | CLint [7]: 2.9 mL/min/g | CLint [8]: 2.4 mL/min/g | remaining at 1 h, 0.1 µM [9]: 73.6% | remaining at 1 h, 0.1 µM [10]: 93.9% | remaining at 1 h, 0.1 µM [11]: 94.8%
SMILES: COc1ccc(S(=O)(=O)Nc2cc(C(=O)O)ccc2F)c2ccccc12
Activity (3T3-L1): Non-Toxic | Activity (Mus musculus [12]): Non-Toxic | Activity (Mus musculus [13]): Non-Toxic | Activity (Mus musculus [14]): Non-Toxic | Activity (Mus musculus [15]): Non-Toxic | Activity (Mus musculus [16]): Non-Toxic | Activity (Mus musculus [17]): Non-Toxic | Activity (Mus musculus [18]): 20 - 35%

pKi [1]: < 5.21
SMILES: COc1ccc(S(=O)(=O)Nc2cncc(C(=O)O)c2)c2ccccc12

pKi [1]: 5.78
SMILES: COc1ccc(S(=O)(=O)Nc2ccc(CC(=O)O)cc2)c2ccccc12

pKi [1]: 5.36
SMILES: O=C(O)CCCNC(=O)c1cc(Cl)cc(Cl)c1

fraction unbound at 16 h, 1 µM (in vitro): 0.109
SMILES: CC(C)NCC(O)COc1cccc2ccccc12 (configuration not stated) [PROPRANOLOL]

pKi [1]: 5.94
SMILES: O=C(O)CCCCNS(=O)(=O)c1ccc(Br)c2ccccc12

pIC50 [2]: < 4.00 | pIC50 [1]: 5.49 | pKi [1]: 6.40
SMILES: COc1ccc(S(=O)(=O)Nc2cccc(C(=O)O)c2)c2ccccc12

pKi [1]: 5.89
SMILES: COc1ccc(S(=O)(=O)Nc2ccc(C(=O)O)cc2)c2ccccc12

pKi [1]: 6.04
SMILES: Cc1c(C)c(C)c(S(=O)(=O)NCCCCC(=O)O)c(C)c1C

pKi [1]: 5.67
SMILES: COc1ccc(S(=O)(=O)NCc2cccc(C(=O)O)c2)c2ccccc12

pKi [1]: 5.92
SMILES: O=C(O)CCCCNS(=O)(=O)c1cc(Cl)cc(Cl)c1

pKi [1]: 6.08
SMILES: COc1ccc(S(=O)(=O)Nc2cccc(CC(=O)O)c2)c2ccccc12

pKi [1]: 5.73
SMILES: O=C(O)CCCCNS(=O)(=O)c1ccc(Cl)c2ccccc12

pIC50 [2]: < 4.00 | pIC50 [1]: 5.74 | pKi [1]: 6.64
SMILES: COc1ccc(S(=O)(=O)Nc2cc(C(=O)O)c(F)cc2F)c2ccccc12

pKi [1]: 5.57
SMILES: Cc1cc(C)c(S(=O)(=O)NCCCCC(=O)O)c(C)c1

pKi [1]: 5.59
SMILES: O=C(O)CCCNS(=O)(=O)c1cc(Cl)cc(Cl)c1

pKi [1]: 5.32
SMILES: O=C(O)CCCCCNS(=O)(=O)c1cc(Cl)cc(Cl)c1

pKi [1]: < 5.21
SMILES: COc1ccc(S(=O)(=O)Nc2cccc(C(=O)O)c2C)c2ccccc12

pKi [1]: 6.12
SMILES: COc1ccc(S(=O)(=O)NCc2ccc(C(=O)O)cc2)c2ccccc12

pKi [1]: 5.71
SMILES: Cc1cc(C)c(C)c(S(=O)(=O)NCCCCC(=O)O)c1C

pKd [19]: 5.22 | pKi [1]: 5.11
SMILES: COc1ccc(S(=O)(=O)Nc2cccc(C(=O)O)c2F)c2ccccc12

pKi [1]: 6.09
SMILES: COc1ccc(S(=O)(=O)Nc2cc(Cl)cc(C(=O)O)c2)c2ccccc12

pKi [1]: 5.13
SMILES: COc1ccc(S(=O)(=O)Nc2ccc(F)c(C(=O)O)c2F)c2ccccc12

pKi [1]: 5.78
SMILES: O=C(O)CSCC(=O)Nc1cc(Cl)cc(Cl)c1

pKi [1]: < 5.21
SMILES: COc1ccc(S(=O)(=O)NC(C)c2cccc(C(=O)O)c2)c2ccccc12 (configuration not stated)

pKi [1]: 5.56
SMILES: COc1ccc(S(=O)(=O)Nc2cc(C(=O)O)ccc2C)c2ccccc12

pKi [1]: 5.19
SMILES: O=C(O)CCNS(=O)(=O)c1cc(Cl)cc(Cl)c1

pKi [1]: < 5.21
SMILES: COc1ccc(S(=O)(=O)Nc2ccc(C)c(C(=O)O)c2)c2ccccc12

pIC50 [2]: < 4.00 | half-life at 0.1 µM [3]: 4.66 h | half-life at 0.1 µM [4]: 11.1 h | half-life at 0.1 µM [5]: 24.6 h | CLint [6]: 7.51 mL/min/g | CLint [7]: 3.15 mL/min/g | CLint [8]: 1.4 mL/min/g | remaining at 1 h, 0.1 µM [9]: 72.3% | remaining at 1 h, 0.1 µM [10]: 93.4% | remaining at 1 h, 0.1 µM [11]: 96.9% | pIC50 [1]: 5.77 | pKi [1]: 6.68 | fraction unbound at 16 h, 1 µM (in vitro): 0.0147
SMILES: COc1ccc(S(=O)(=O)Nc2ccc(F)c(C(=O)O)c2)c2ccccc12
Activity (3T3-L1): Non-Toxic | Activity (Mus musculus [12]): Non-Toxic | Activity (Mus musculus [13]): Non-Toxic | Activity (Mus musculus [14]): Non-Toxic | Activity (Mus musculus [15]): Non-Toxic | Activity (Mus musculus [16]): Non-Toxic | Activity (Mus musculus [17]): Non-Toxic | Activity (Mus musculus [18]): 20 - 35%
